Results as given in US20060211651A1, “Persulfated oligosaccharide acting on selectins and chemokine” (Taisho Pharmaceutical Co., Ltd., priority 2002, published 2006).

How the values were obtained:
[1] = tested on: CD44-Ig; assay: BIAcore surface plasmon resonance, hyaluronic acid vs CD44-Ig; parameters: species or system human; conditions: bivalent analyte binding model
Method: Then, using the resulting CD44, human CD44-immunoglobulin (Ig) was prepared according to the method described in Toyama-Sorimachi, N. [J. Biol. Chem., 270, 7437-7444, (1995); all teachings of which are hereby incorporated by reference].
(§1) Affinity kinetics of the interaction between various CS/DS chains and each of L-selectin, P-selectin, CD44 and chemokine were examined by surface plasmon resonance using BIAcore™ biosensor [manufactured by BIAcore AB].
(§2) All experiments were performed at 25° C. At stages of washing and dissociation, buffer C (20 mM HEPES-NaOH, 0.15M NaCl, 1 mM CaCl2, 1 mM MgCl2, pH6.8) was used as a running buffer.
First, about 1.8 to 2.0 kiloresonance unit (1 kiloresonance unit=1 ng/mm^2) of streptavidin were covalently immobilized onto B1 sensor chip via a primary amine group using an amine coupling kit [manufactured by Amercham-Bioscience] according to the instruction provided by the manufacturer. The remaining activated groups were blocked with 150 μl of 1M ethanolamine-HCl (pH8.5). […]
Binding assay was performed by injecting continuously each of various concentrations of secondary lymphoid tissue chemokine, γ-interferon inducible protein-10, stromal cell-derived factor-1β, monomeric L-selectin [manufactured by Genzyme-Techne], monomeric P-selectin [manufactured by Genzyme-Techne] and monomeric CD44, to a glycosaminoglycan-coupled sensor tip at a flow rate of 30 μl/min for 0 to 90 seconds, and then injecting a running buffer thereto. A response in resonance unit was recorded as a function of a time. […]
(§3) In FIG. 6 and Table 3, SLC denotes secondary lymphoid tissue chemokin, IP-10 denotes γ-interferon inducible protein-10, SDF-1β denotes stromal cell-derived factor-1β, CS E denotes chondroitin sulfate E, and CS A denotes chondroitin sulfate A. In addition, in Table 3, Kd value for the interaction between monomeric CD44 and chondroitin sulfate E is a value calculated from a binding amount at equilibrium, and Kd value of the interaction between CD44 and hyaluronic acid is a value calculated using CD44-Ig.

[2] = biological target: T1, monomeric L-selectin (Homo sapiens, UniProt P14151); assay: BIAcore surface plasmon resonance, immobilized glycosaminoglycan vs monomeric L-selectin; assay type: binding; conditions: monomeric L-selectin
T1 construct: purchased Genzyme-Techne
T1 sequence (P14151 39-332 limits assumed): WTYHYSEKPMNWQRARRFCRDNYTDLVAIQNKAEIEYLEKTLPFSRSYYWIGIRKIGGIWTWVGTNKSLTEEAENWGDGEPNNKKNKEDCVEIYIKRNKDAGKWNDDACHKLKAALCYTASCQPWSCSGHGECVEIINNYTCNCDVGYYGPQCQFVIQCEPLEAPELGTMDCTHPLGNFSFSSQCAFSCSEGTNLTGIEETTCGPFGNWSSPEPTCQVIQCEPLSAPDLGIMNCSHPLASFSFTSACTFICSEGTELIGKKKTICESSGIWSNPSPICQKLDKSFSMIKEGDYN
Method: as §1, §2
(§4) First, about 1.8 to 2.0 kiloresonance unit (1 kiloresonance unit=1 ng/mm^2) of streptavidin were covalently immobilized onto B1 sensor chip via a primary amine group using an amine coupling kit [manufactured by Amercham-Bioscience] according to the instruction provided by the manufacturer. The remaining activated groups were blocked with 150 μl of 1M ethanolamine-HCl (pH8.5). Then, each glycosaminoglycan which had been biotinylated at a reducing end was injected to a sensor tip surface by using EZ-link™ biotin-LC-hydrazide [manufactured by Pierce] so as to obtain about 150 resonance unit of an immobilization level, according to the method of Sadir et al. [J. Biol. Chem., 276, 8288-8296 (2001); all teachings of which are hereby incorporated by reference].
(§5) Binding assay was performed by injecting continuously each of various concentrations of secondary lymphoid tissue chemokine, γ-interferon inducible protein-10, stromal cell-derived factor-1β, monomeric L-selectin [manufactured by Genzyme-Techne], monomeric P-selectin [manufactured by Genzyme-Techne] and monomeric CD44, to a glycosaminoglycan-coupled sensor tip at a flow rate of 30 μl/min for 0 to 90 seconds, and then injecting a running buffer thereto. A response in resonance unit was recorded as a function of a time.
(§6) A sensor tip surface was regenerated with 300 μl of 1 M NaCl when chemokine or CD44 was used, or regenerated with 300 μl of 1 M NaCl, and additional 100 μl of 50 mM EDTA (pH8.0), when selectin was used. As a result of regeneration of a sensor tip surface, a remarkable change in a baseline was not observed.
as §3, with “An affinity kinetic parameter was determined by BIAevaluation 3.0 software [manufactured by Pharmacia Biosensor] using a single site binding model. […] In FIG.” for “In FIG.”

[3] = biological target: T2, L-selectin-Ig (Homo sapiens, UniProt P14151); assay: Binding inhibition assay (ELISA), biotinylated versican to L-selectin-Ig, various concentrations; conditions: dose-dependent, FIG. 2 panel A
T2 construct: purchased R & D Systems Inc
Method: (§7) Inhibition assay of binding between versican and each of L-selectin, P-selectin and CD44 was performed as follows. First, each well on a 96 well flat bottom microtiter plate (Coster EIA/RIA plate No. 3690) was coated with L-selectin-Ig (3 μg/ml), P-selectin-Ig (4 μg/ml) or CD44-Ig (0.25 μg/ml) by a conventional procedure. […] The plate was incubated at room temperature for 2 hours. Thereafter, the plate was washed with the buffer A, and enzyme-linked immunosorbent assay was performed in the same manner as described in Kawashima, H. et al. [J. Biol. Chem., 275, 35448-35456 (2000)]. Binding was determined by measuring absorbance at 620 nm using alkaline phosphatase-conjugated streptavidin and Blue Phos™ substrate.

[4] = biological target: T3, stromal cell-derived factor-1β (Homo sapiens, UniProt P48061); assay: BIAcore surface plasmon resonance, immobilized glycosaminoglycan vs SDF-1β; assay type: binding
T3 construct: purchased Pepro Tech
Method: as §1, §2, §4, §5, §6
as §3, with “An affinity kinetic parameter was determined by BIAevaluation 3.0 software [manufactured by Pharmacia Biosensor] using a single site binding model. […] In FIG.” for “In FIG.”

[5] = tested on: P-selectin-Ig; assay: Binding inhibition assay (ELISA), biotinylated versican to P-selectin-Ig, various concentrations; conditions: dose-dependent, FIG. 2 panel B
Method: as §7

[6] = biological target: T4, monomeric CD44 (Homo sapiens, UniProt P16070); assay: BIAcore surface plasmon resonance, immobilized glycosaminoglycan vs monomeric CD44; assay type: binding; conditions: CD44 monomeric; GAG immobilized; 25° C.
T4 construct: codons of amino acids positions 172 to 178 of human CD44; Myc-His (from vector pcDNA 3.1/Myc-His(+) B) (C); made in house; host or cells: 293T cells, secreted into conditioned medium and purified on anti-CD44 BRIC 235 Sepharose
Method: Human-derived CD44 cDNA was prepared by PCR using a sense primer (SEQ ID NO: 1):
Thereafter, the conditioned medium was subjected to immunoaffinity chromatography with anti-CD44 monoclonal antibody BRIC 235-coupled CNBr-activated Sepharose 4B, to obtain monomeric CD44. The resulting soluble CD44 was subjected to SDS-PAGE and silver staining. As a result, the purity of the resulting soluble CD44 was more than 95%.
as §1, §2, §4, §5, §6
as §3, with “An affinity kinetic parameter was determined by BIAevaluation 3.0 software [manufactured by Pharmacia Biosensor] using a single site binding model. […] In FIG.” for “In FIG.”

[7] = biological target: γ-interferon inducible protein-10 (Homo sapiens, UniProt P02778); assay: BIAcore surface plasmon resonance, immobilized glycosaminoglycan vs IP-10; assay type: binding
Method: as §1, §2, §4, §5, §6
as §3, with “An affinity kinetic parameter was determined by BIAevaluation 3.0 software [manufactured by Pharmacia Biosensor] using a single site binding model. […] In FIG.” for “In FIG.”

[8] = tested on: secondary lymphoid tissue chemokine; assay: BIAcore surface plasmon resonance, immobilized glycosaminoglycan vs SLC; assay type: binding
Method: as §1, §2, §4, §5, §6
as §3, with “An affinity kinetic parameter was determined by BIAevaluation 3.0 software [manufactured by Pharmacia Biosensor] using a single site binding model. […] In FIG.” for “In FIG.”

[9] = tested on: CD44-Ig; assay: ELISA, biotinylated versican binding to CD44-Ig in presence of glycosaminoglycan; parameters: species or system human; conditions: 100 μg/ml glycosaminoglycan; FIG. 5
Method: A well of a 96 well flat bottom microtiter plate was coated with BSA (5 μg/ml), anti-versican monoclonal antibody 2B1 (5 μg/ml), CD44-Ig (7 μg/ml), L-selectin-Ig (3 μg/ml), P-selectin-Ig (3 μg/ml) or chemokine (1 μg/ml), and then blocked with a phosphate buffered physiological saline containing 3% by weight of BSA. As the above chemokine, secondary lymphoid tissue chemokine, γ-interferon inducible protein-10, platelet factor 4, stromal cell-derived factor-1β [manufactured by Pepro Tech] and stromal cell-derived factor-1α [manufactured by Pepro Tech] were used.
Thereafter, the plate was washed with the buffer A, and enzyme-linked immunosorbent assay was performed in the same manner as that of the previous report [Kawashima, H. et al., J. Biol. Chem., 275, 35448-35456 (2000)]. Binding was determined by measuring absorbance at 620 nm using alkaline phosphatase-conjugated streptavidin and Blue Phos™ substrate. In FIG. 5, expression of an abscissa axis is the same as that of FIG. 4.

[10] = biological target: T5, monomeric P-selectin (Homo sapiens, UniProt P16109); assay: BIAcore surface plasmon resonance, immobilized glycosaminoglycan vs monomeric P-selectin; assay type: binding; conditions: monomeric P-selectin
T5 construct: purchased Genzyme-Techne
T5 sequence (P16109 42-771 limits assumed): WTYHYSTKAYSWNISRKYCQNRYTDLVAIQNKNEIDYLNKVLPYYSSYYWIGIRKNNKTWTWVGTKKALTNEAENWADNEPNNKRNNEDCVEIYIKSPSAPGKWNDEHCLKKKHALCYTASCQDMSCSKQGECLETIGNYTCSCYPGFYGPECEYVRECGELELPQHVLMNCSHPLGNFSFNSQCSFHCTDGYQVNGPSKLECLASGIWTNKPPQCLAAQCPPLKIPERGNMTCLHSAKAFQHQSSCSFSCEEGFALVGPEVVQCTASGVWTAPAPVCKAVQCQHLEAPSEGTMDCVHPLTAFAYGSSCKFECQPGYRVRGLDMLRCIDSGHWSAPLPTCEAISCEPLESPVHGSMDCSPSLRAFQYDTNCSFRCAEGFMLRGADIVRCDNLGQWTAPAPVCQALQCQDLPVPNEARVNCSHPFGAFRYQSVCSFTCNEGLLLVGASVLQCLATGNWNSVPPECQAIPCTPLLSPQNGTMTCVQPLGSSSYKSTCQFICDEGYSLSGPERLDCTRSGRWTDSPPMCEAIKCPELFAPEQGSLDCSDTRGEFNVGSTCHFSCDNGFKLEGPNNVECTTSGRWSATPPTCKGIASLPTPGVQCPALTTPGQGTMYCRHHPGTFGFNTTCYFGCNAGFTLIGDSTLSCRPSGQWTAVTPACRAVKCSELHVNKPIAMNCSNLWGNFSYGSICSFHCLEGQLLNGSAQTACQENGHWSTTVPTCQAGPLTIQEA
Method: as §1, §2, §4, §5, §6
as §3, with “An affinity kinetic parameter was determined by BIAevaluation 3.0 software [manufactured by Pharmacia Biosensor] using a single site binding model. […] In FIG.” for “In FIG.”

[11] = biological target: T5, monomeric P-selectin; conditions: cited from earlier work

Sequence of CD44-Ig (P16070 21-178 limits assumed): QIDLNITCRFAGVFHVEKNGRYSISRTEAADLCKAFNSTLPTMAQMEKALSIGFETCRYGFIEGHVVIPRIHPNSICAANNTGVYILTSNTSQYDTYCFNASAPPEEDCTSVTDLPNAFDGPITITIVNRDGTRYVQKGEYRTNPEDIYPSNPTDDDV
T4 sequence (P16070 21-178 limits assumed): as above
T3 sequence (P48061 22-93): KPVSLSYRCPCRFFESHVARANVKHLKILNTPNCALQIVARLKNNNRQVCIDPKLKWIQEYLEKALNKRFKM
T2 sequence (P14151 with tags, fused parts or gaps limits assumed): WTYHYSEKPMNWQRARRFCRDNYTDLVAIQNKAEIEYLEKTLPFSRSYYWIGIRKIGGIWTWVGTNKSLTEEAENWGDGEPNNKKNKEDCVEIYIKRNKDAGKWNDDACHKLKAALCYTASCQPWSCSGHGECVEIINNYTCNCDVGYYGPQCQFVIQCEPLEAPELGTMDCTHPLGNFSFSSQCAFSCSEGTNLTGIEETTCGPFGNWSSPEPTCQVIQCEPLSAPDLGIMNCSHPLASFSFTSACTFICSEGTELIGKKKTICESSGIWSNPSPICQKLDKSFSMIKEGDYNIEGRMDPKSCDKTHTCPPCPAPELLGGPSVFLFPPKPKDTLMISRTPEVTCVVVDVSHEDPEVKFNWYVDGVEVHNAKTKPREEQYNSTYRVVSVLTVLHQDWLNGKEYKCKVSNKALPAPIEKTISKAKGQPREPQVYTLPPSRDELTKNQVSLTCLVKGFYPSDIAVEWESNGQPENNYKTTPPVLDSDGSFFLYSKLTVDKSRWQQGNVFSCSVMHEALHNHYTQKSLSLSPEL
Sequence of γ-interferon inducible protein-10 (P02778 22-98): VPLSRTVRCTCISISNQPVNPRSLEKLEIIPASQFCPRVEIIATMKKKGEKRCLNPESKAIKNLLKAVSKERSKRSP

hyaluronic acid [HA]
koff ([1]; CD44-Ig): 0.0543 s⁻¹
kon ([1]; CD44-Ig): 26100 M⁻¹ s⁻¹
Kd ([1]; determined using CD44-Ig): 2080 nM

chondroitin
interaction with immobilized glycosaminoglycan (sensorgram) [2]: did not interact
inhibition of binding between biotinylated versican and L-selectin-Ig [3]: not inhibited
interaction with immobilized glycosaminoglycan (sensorgram) [4]: did not interact
inhibition of binding between biotinylated versican and P-selectin-Ig [5]: not inhibited
Kd [6]: 129000 nM
koff [6]: 0.0649 s⁻¹
kon [6]: 503 M⁻¹ s⁻¹
interaction with immobilized glycosaminoglycan (sensorgram) [7]: did not interact
interaction with immobilized glycosaminoglycan (sensorgram) [8]: did not interact
inhibition of binding between biotinylated versican and CD44-Ig [9]: inhibited
interaction with immobilized glycosaminoglycan (sensorgram) [10]: did not interact

B1: P-selectin glycoprotein ligand-1: known ligand of P-selectin (protein, UniProt Q14242 42-412, looked up)
P-selectin glycoprotein …: QATEYEYLDYDFLPETEPPEMLRNSTDTTPLTGPGTPESTTVEPAARRSTGLDAGGAVTELTTELANMGNLSTDSAAMEIQTTQPAATEAQTTQPVPTEAQTTPLAATEAQTTRLTATEAQTTPLAATEAQTTPPAATEAQTTQPTGLEAQTTAPAAMEAQTTAPAAMEAQTTPPAAMEAQTTQTTAMEAQTTAPEATEAQTTQPTATEAQTTPLAAMEALSTEPSATEALSMEPTTKRGLFIPFSVSSVTHKGIPMAASNLSVNYPVGAPDHISVKQCLLAILILALVATIFFVCTVVLAVRLSRKGHMYPVRNYSPTEMVCISSLLPDGGEGPSATANGGLSKAKSPGLTPEPREDREGDDLTLHSFLP
Kd [11]: ~300 nM
association rate [11]: 4.4e+06 M⁻¹ s⁻¹
dissociation rate [11]: 1.4 s⁻¹
